Patent US20090048339A1, “COMPOSITIONS OF CIS-9, TRANS-11 CONJUGATED LINOLEIC ACID AND VACCENIC ACID AND USES THEREOF” (FONTERRA CORPORATE RESEARCH AND DEVELOPMENT LIMITE, priority 2005, published 2009)

Columns and labels:
IL-5 = IL-5 in BAL fluid by ELISA after allergen challenge; type: in vivo, C57BL/6 mice; conditions: vs AIN-93G control
From the text: The levels of IL-5 and eotaxin in the BAL fluid were quantitated by ELISA using a Quantikine mouse IL-5 ELISA kit and a mouse eotaxin Quantikine ELISA kit (R&D Systems, MN), respectively, according to the manufacturers' instructions. The detection limits were 3 pg/ml for eotaxin and 7 pg/ml for IL-5.
IL-5 and eotaxin produced by a variety of different cell types in the sensitized lung play key roles in asthma by controlling the development and release of eosinophils from the bone marrow, and their accumulation, activation and survival in the lung (Walsh et al., 2005; Shinagawa et al., 2003). Challenge with allergen led to marked increases in the levels of IL-5 and eotaxin (data not shown) in the BAL fluid of control mice fed the AIN93G diet (FIG. 3).

[1] = Blood triglyceride levels (Accutrend GCT meter); conditions: diet with 0.21% VA; P<0.05; data not shown
[2] = mice, two week feeding period; cited from earlier work
[3] = test system: allergen-induced accumulation of leukocytes into the lung; assay: OVA-induced asthma mouse model: bronchoalveolar lavage (BAL) total and differential cell counts; type: in vivo, C57BL/6 mice; conditions: for increase of total BAL cell counts vs control diet: single-supplement diets (0.14% cis-9, trans-11 CLA or 0.21% VA), BAL 6 days after intranasal OVA challenge, vs AIN93G control; for increase of accumulation of eosinophils in BAL vs control diet: single-supplement diets, BAL 6 days after OVA challenge, not significant; for effect on leukocyte infiltration into the airway lumen: summary statement
Experimental: (§1) Eight to nine week old male and female C57BL/6 mice (University of Auckland, New Zealand) were kept on an ovalbumin (OVA)-free normal mouse chow diet from weaning up until they were assigned to a particular diet (control or experimental diet). Each diet group (n=6) contained an equal number of male and female mice. Throughout the study period mice were kept in an air-conditioned room with controlled humidity, temperature, and a 12h light:dark cycle.
(§2) Healthy control mice were maintained on an unmodified AIN-93G diet. Soybean oil (which contains no CLA) was the dietary fat source in the AIN-93G diet. The final fat content of all treatment diets used in the Examples was maintained at the same level as the fat content of the control AIN-93G diet by reducing the soybean oil content of the treatment or control diets as required. Fresh diet was provided biweekly, and mice had free access to food and water throughout the study.
Bronchoalveolar lavage was performed immediately after euthanasia by flushing 1 ml of PBS containing 1% heat inactivated fetal calf serum (lavage buffer) thrice through the lung and airways of mice via the cannulated trachea. The recovered BAL was pooled for each animal, centrifuged at 1,500 rpm at 4° C., and the supernatant stored at −80° C. The cell pellets were resuspended in 1 ml of lavage buffer, and total cell numbers were counted using a hemocytometer. BAL cells were centrifuged onto poly-L-lysine-coated glass slides using a cytospin, and stained with Diff-Quik stain (Dade Behring Inc. USA). Differential cellular counts were made by counting ≧300 cells under light microscopy (Nikon E200 microscope), using standard morphological criteria.
Data are expressed as the mean±SEM, and statistical significance was determined by the Student's t test. A value of P<0.05 was taken as significant.

[4] = humans; cited from earlier work
OVA-induced asthma = OVA-induced asthma mouse model: lung histopathology score and mucus index (alcian blue-PAS sections); type: in vivo, C57BL/6 mice; conditions: summary statement; for effect on lung pathology: fed individually
Experimental: as §1, §2

SMILES	reduction of IL-5 in BAL fluid vs control diet (IL-5) [%]	increase of blood triglyceride levels [1] [%]	VA consumed retained as cis-9, trans-11 CLA in its triglyceride form [2] [%]	increase of total BAL cell counts vs control diet [3] [%]	increase of accumulation of eosinophils in BAL vs control diet [3] [%]	effect on leukocyte infiltration into the airway lumen [3]	average conversion rate of VA to cis-9, trans-11 CLA [4] [%]	effect on lung pathology (OVA-induced asthma)	increase in monocytes/macrophages in BAL vs control diet ([3]; 0.14% cis-9, trans-11 CLA diet, P=0.05) [%]	inhibition of mucus hypersecretion (significance) (OVA-induced asthma)
CCCCCC/C=C/CCCCCCCCCC(=O)O [VA, trans 11-octadecenoic acid]	11	59	~12	94	270	increased	~19	no significant effect	–	–
CCCCCC/C=C/C=C\CCCCCCCC(=O)O [cis-9, trans-11 CLA, cis-9, trans-11 conjugated linoleic acid]	21	–	–	43	69	increased	–	no significant effect	35	significance was not achieved
